Columns and labels:
[1] = test system: Tel23 (DNA, G4) TAGGGTTAGGGTTAGGGTTAGGG; assay: UV melting at 295 nm; settings: K+ 100 mM (KCl), Li+, LiCac 2.5 mM, pH 7.0, 5.51 µM G4, no stabilizing effect
[2] = test system: Tel23 (DNA, G4) TAGGGTTAGGGTTAGGGTTAGGG; assay: absorbance titration; settings: K+ (KCl 0.1 M stated for G4 melting), Li+; LiCac 2.5 mM, pH 7.0; no signal change; highest concentration not stated

SMILES	binding ([1]; 6.01 µM compound)	binding [2]	binding ([1]; 5.47 µM compound)
C[n+]1ccc(-c2cc[n+](C)cc2)cc1	no	no	
c1cc[n+]2c(c1)-c1cccc[n+]1CC2		no	no
